Test results taken from the NIST ThermoML archive (doi:10.1021/je800463k).

Assay: mn = molality of the nth substance listed, in mol/kg
Conditions: 101 kPa, Liquid; for speed of sound: Frequency=2 MHz; for mass density: Pycnometric method; for electrical conductivity: Frequency=0.001 MHz, Alternating current cell with electrodes

CC(=O)[O-].CC(=O)[O-].[Mg+2] [magnesium acetate] + CO
Conditions | electrical conductivity [S/m] | mass density [kg/m3] | speed of sound [m/s] | viscosity [mPa·s]
308.15 K, m1 = 0.014 | – | – | – | 0.4859
308.15 K, m1 = 0.018 | – | – | – | 0.4878
308.15 K, m1 = 0.0339 | – | – | – | 0.496
308.15 K, m1 = 0.0646 | – | – | – | 0.5027
308.15 K, m1 = 0.0855 | – | – | 1073.8 | –
308.15 K, m1 = 0.1012 | – | – | – | 0.5234
308.15 K, m1 = 0.1024 | – | – | 1077.1 | –
308.15 K, m1 = 0.13 | – | – | – | 0.532
308.15 K, m1 = 0.1402 | – | – | 1078.5 | 0.5368
308.15 K, m1 = 0.1455 | – | – | 1075.3 | –
308.15 K, m1 = 0.17 | – | – | – | 0.5518
308.15 K, m1 = 0.1837 | – | – | 1078.1 | –
308.15 K, m1 = 0.2003 | – | – | – | 0.5625
308.15 K, m1 = 0.2192 | – | – | 1081.5 | –
308.15 K, m1 = 0.2422 | – | – | 1081.2 | 0.5782
308.15 K, m1 = 0.2453 | – | – | – | 0.578
308.15 K, m1 = 0.2889 | – | – | 1082 | 0.5942
308.15 K, m1 = 0.3042 | – | – | 1083.6 | –
308.2 K, m1 = 0.0093 | – | 779.23 | – | –
308.7 K, m1 = 0.1112 | – | 786.87 | – | –
308.9 K, m1 = 0.053 | – | 781.63 | – | –
308.9 K, m1 = 0.1798 | – | 791.35 | – | –
308.9 K, m1 = 0.2003 | – | 791.74 | – | –
308.9 K, m1 = 0.2668 | – | 795.13 | – | –
308.95 K, m1 = 0.0855 | – | 783.63 | – | –
309.1 K, m1 = 0.0059 | – | 777.74 | – | –
309.1 K, m1 = 0.1455 | – | 788.87 | – | –
309.45 K, m1 = 0.2192 | – | 791.87 | – | –
309.5 K, m1 = 0.3042 | – | 796.38 | – | –
309.75 K, m1 = 0.0646 | – | 782.66 | – | –
309.95 K, m1 = 0.2422 | – | 793.32 | – | –
310.25 K, m1 = 0.014 | – | 778.28 | – | –
310.25 K, m1 = 0.0339 | – | 779.95 | – | –
310.5 K, m1 = 0.1402 | – | 787 | – | –
310.65 K, m1 = 0.0093 | – | 776.87 | – | –
311 K, m1 = 0.2668 | – | 793.11 | – | –
311.2 K, m1 = 0.1112 | – | 784.4 | – | –
311.2 K, m1 = 0.3042 | – | 794.7 | – | –
311.4 K, m1 = 0.053 | – | 779.24 | – | –
311.5 K, m1 = 0.0855 | – | 781.28 | – | –
311.5 K, m1 = 0.1798 | – | 788.93 | – | –
311.55 K, m1 = 0.0059 | – | 775.36 | – | –
311.6 K, m1 = 0.1455 | – | 786.44 | – | –
311.9 K, m1 = 0.2192 | – | 789.45 | – | –
312.1 K, m1 = 0.1402 | – | 785.37 | – | –
312.15 K, m1 = 0.0646 | – | 780.21 | – | –
312.3 K, m1 = 0.0093 | – | 775.23 | – | –
312.35 K, m1 = 0.2003 | – | 788.52 | – | –
312.45 K, m1 = 0.2422 | – | 790.83 | – | –
312.7 K, m1 = 0.0339 | – | 777.5 | – | –
312.75 K, m1 = 0.014 | – | 775.84 | – | –
312.9 K, m1 = 0.053 | – | 777.6 | – | –
313.05 K, m1 = 0.0855 | – | 779.61 | – | –
313.1 K, m1 = 0.2668 | – | 791.07 | – | –
313.15 K, m1 = 0.0059 | 0.0376 | – | 1053.9 | –
313.15 K, m1 = 0.0093 | 0.0598 | – | 1054.5 | –
313.15 K, m1 = 0.014 | – | – | – | 0.4545
313.15 K, m1 = 0.018 | 0.0685 | – | 1055.7 | 0.4559
313.15 K, m1 = 0.0339 | 0.089 | – | – | 0.4632
313.15 K, m1 = 0.053 | 0.1041 | – | 1059.6 | –
313.15 K, m1 = 0.0646 | 0.1137 | – | – | 0.4698
313.15 K, m1 = 0.0855 | 0.1243 | – | 1059 | –
313.15 K, m1 = 0.1012 | – | – | – | 0.4881
313.15 K, m1 = 0.1024 | 0.1348 | – | 1061 | –
313.15 K, m1 = 0.13 | – | – | – | 0.4956
313.15 K, m1 = 0.1402 | 0.1535 | – | 1062.7 | 0.5
313.15 K, m1 = 0.1455 | 0.1577 | – | 1059.1 | –
313.15 K, m1 = 0.17 | – | – | – | 0.5145
313.15 K, m1 = 0.1837 | 0.166 | – | 1061.4 | –
313.15 K, m1 = 0.2003 | – | – | – | 0.5239
313.15 K, m1 = 0.2192 | – | – | 1064.3 | –
313.15 K, m1 = 0.2422 | 0.1817 | – | 1064.9 | 0.5375
313.15 K, m1 = 0.2453 | – | – | – | 0.5373
313.15 K, m1 = 0.2889 | 0.1868 | – | 1066.1 | 0.5513
313.15 K, m1 = 0.3042 | – | – | 1067.2 | –
313.55 K, m1 = 0.3042 | – | 792.2 | – | –
313.65 K, m1 = 0.1112 | – | 782 | – | –
313.95 K, m1 = 0.1455 | – | 784.03 | – | –
313.95 K, m1 = 0.1798 | – | 786.45 | – | –
314.05 K, m1 = 0.0059 | – | 772.92 | – | –
314.55 K, m1 = 0.1402 | – | 782.97 | – | –
314.6 K, m1 = 0.0646 | – | 777.82 | – | –
314.7 K, m1 = 0.0093 | – | 772.8 | – | –
314.8 K, m1 = 0.2003 | – | 786.04 | – | –
314.8 K, m1 = 0.2422 | – | 788.41 | – | –
314.8 K, m1 = 0.2668 | – | 789.38 | – | –
315.1 K, m1 = 0.0339 | – | 775.12 | – | –
315.2 K, m1 = 0.014 | – | 773.47 | – | –
315.4 K, m1 = 0.053 | – | 775.16 | – | –
315.45 K, m1 = 0.0855 | – | 777.19 | – | –
316.05 K, m1 = 0.3042 | – | 789.78 | – | –
316.35 K, m1 = 0.0059 | – | 770.56 | – | –
316.35 K, m1 = 0.1798 | – | 784.05 | – | –
316.4 K, m1 = 0.1455 | – | 781.57 | – | –
316.95 K, m1 = 0.0855 | – | 775.61 | – | –
316.95 K, m1 = 0.2668 | – | 787.26 | – | –
317 K, m1 = 0.0093 | – | 770.44 | – | –
317.25 K, m1 = 0.2003 | – | 783.64 | – | –
318.7 K, m1 = 0.1455 | – | 779.18 | – | –
